According to patent publication US5547956A, “Pharmaceutical composition and the method for treating drug addicts' withdrawal syndromes and detoxifying addicts by the same” (priority 1991, dated 1996):
Structures can show the parent of a compound that is named as a salt. Where two headings read alike, the source gives them in different places.

Legend:
Morphine-dependent Mice = assay type: in vivo, mouse; conditions: for Jumping Mice/Survived Mice, Day 1 after stopping drug / Jumping Mice/Survived Mice, Day 4 after stopping administration / Jumping Mice/Survived Mice, Day 5 of treatment: nalorphine 50 mg/kg
Method: In the first 4 days, administration was given once per 6 hours, four times a day. From day 5 through day 7, administration was given once every 8 hours, three times a day. On day 5 and day 8 of treatment, respectively, subcutaneous injections of nalorphine (50 mg/kg) were made to […].

mice [1] = system: mice
Method: Male mice weighing 18~22 g were used for the test and divided into 3 groups (10 for every group). […] The second group of mice was given a subcutaneous injection of lappaconitine hydrobromide (8 mg/kg) for 20 days. The third group was a control group and was given physiological saline. 6 hours after being given the last dose, all the mice were given an intraperitoneal injection of 10 mg/kg allyl dromaran, and then were placed in a cone cylinder cage (diameter=30 cm, height=35 cm). The number of jumps for each mouse in 60 minutes was recorded.

mice [2] = system: mice; remark: listed apart in the source
Method: In another case, male mice weighing 18-22 g were divided into four groups (10 for every group). Two groups of mice were injected subcutaneously with lappaconitine hydrobromide 7 times within 2 days. The initial dosage was 3.5 mg/kg. Then, additional doses of 0.5 mg/kg and 1.0 mg/kg were given for every injection in each group, respectively. […] The initial dosage was 2.5 mg/kg and an escalating dose schedule of 5, 10, 20, 30, 40, 50 mg/kg was applied. The fourth group of mice was used as control group and was given physiological saline. Two hours after the last injection, all the mice of the above four groups were injected with 50 mg/kg nalorphine through the intraperitoneal cavity. The number of jumps within 10 minutes in each group of mice were recorded.

Morphine-dependent rats = assay type: in vivo, Wister rat
Method: Wister male rats weighing 200-250 g were divided into 3 groups (10 for each group).
II Physiological saline 2 ml/kg. sc
III Lappaconitine hydrobromide 8 mg/kg. sc

Macaca mulatta = experiment: Monkey addiction test (lappaconitine); assay type: in vivo
Method: Three of 6 Macaca mulatta weighing 2.75~4.75 kg were subcutaneously injected with lappaconitine twice a day. The initial dosage is 0.1 mg/kg, and the dose was successively escalated to the maximum tolerance dosage, 2 mg/kg within 50 days. Then, the tolerance dosage was maintained to the 53rd day, 67th day and 92nd day, respectively. […] On day 63 and day 92, the injections of lappaconitine to the monkeys was stopped. […] On day 29, 53, 59, 67 and 90, injections to the monkeys were discontinued and after 18 hours, subcutaneous injection of nalorphine (4 or 8 mg/kg) were given.

[3] = Acute Toxicity Test, mice; assay type: in vivo, mouse; conditions: for LD50: mouse, in vivo, read-out: LD50 (95 % confidence limit)
[4] = Acute Toxicity Test, rats; assay type: in vivo, rat
[5] = Acute Toxicity Test, monkeys; assay type: in vivo, Macca Mulatta
[6] = assay type: in vivo, Wister rat; conditions: 5 or 10 mg/kg ip a day, 30 days
Method: Ten Wister rats weighing 200~250 g were divided into 2 groups (5 for each group). Each group was given intraperitoneal injection of 5 mg/kg or 10 mg/kg of lappaconitine a day, respectively. The injection was continued for 30 days. 5 wister rats of a control group were given subcutaneous injections of saline (2 ml/kg). […].

[7] = assay type: in vivo, Wister rat; conditions: 8 to 14 mg/kg ip escalated, until day 28
Method: Another ten Wister rats were medicated with successively escalated doses, in other words, the rats were first injected with lappaconitine (8 mg/kg) intraperitoneally. After one week with 10 mg/kg; after 2 weeks with 12 mg/kg; after 16 days with 14 mg/kg; and the last dose was maintained until day 28.

[8] = Subacute toxicity Test, monkeys; assay type: in vivo, Macca Mulatta
Method: Three Macca Mulatta weighing 2.75~4.75 kg were injected with lappaconitine subcutaneously twice a day. Initiated with 0.1 mg/kg, the dosage was increased successively to the highest tolerated dosage, 2 mg/kg within 50 days, and the last dosage was maintained to day 53, day 67 and day 92, respectively. The accumulated injective dosage was 196, 400 and 635 mg, respectively.

[9] = system: mice dependent on cocaine
Method: In the same way as described above, subcutaneous injection of cocaine (10 mg/kg) were given to the mice twice a day, and the injection was continued for 7 days.

[10] = system: morphine-dependent monkeys
[11] = oral methadone vs injected morphine; cited from earlier work
[12] = 0.45 mg/g sc (so in the source)
[13] = nalorphine 50 mg/kg, 2 days: lappaconitine initial 3.5 mg/kg, total 45.5 mg/kg, 5 mice tested
[14] = 0.1 to 2 mg/kg sc twice a day, to day 53, 67 and 92

Question: With `CCN1CC2(O)CCC(OC)C34C1C(CC23)C1(O)CC(OC)C2CC4C1(O)C2OC` (stereo not shown) [Lappaconine hydrobromide, lappaconine hydrobromide] as the molecule, how does the “Jumping Mice/Survived Mice, Day 1 after stopping drug” value (Morphine-dependent Mice; 5 mg/g (so in the source) sc) read?
Answer: 0/10

Question: And the “Jumping Mice/Survived Mice, Day 4 after stopping administration” value (Morphine-dependent Mice; 5 mg/g (so in the source) sc)?
Answer: 0/10

Question: And the “Jumping Mice/Survived Mice, Day 5 of treatment” value (Morphine-dependent Mice; 5 mg/g (so in the source) sc)?
Answer: 0/10

Question: With `CCN1CC2(OC(=O)c3ccccc3NC(C)=O)CCC(OC)C34C1C(CC23)C1(O)CC(OC)C2CC4C1(O)C2OC` (stereo not shown) [Lappaconitine hydrobromide, lappaconitine hydrobromide] as the molecule, how does the behaviour after administration (mice [1]; mouse, in vivo) read?
Answer: looked quiet and immobile and showed no pilo-erection reaction

Question: And the “jumping reaction after injection of allyl dromaran” value (mice [1]; mouse, in vivo)?
Answer: no jumping reaction

Question: And the “drug dependence (conclusion of Table 4)” value (mice [2]; mouse jumping test)?
Answer: does not cause drug dependence

Question: And the “Jumping Mice/Survived Mice, Day 1 after stopping drug” value (Morphine-dependent Mice; [12])?
Answer: 0/10

Question: What about the “Jumping Mice/Survived Mice, Day 4 after stopping administration” value (Morphine-dependent Mice; [12]) of the same molecule?
Answer: 0/10

Question: And the “Jumping Mice/Survived Mice, Day 5 of treatment” value (Morphine-dependent Mice; [12])?
Answer: 1/10

Question: And the “number of jumps of the one jumping mouse” value (Morphine-dependent Mice; footnote *^3, 0.45 mg/g (so in the source) sc group, Day 5)?
Answer: five

Question: Which “jumping times of each mouse” value (mice [1]; mouse, in vivo) does the source give for `CCN1CC2(OC(=O)c3ccccc3NC(C)=O)CCC(OC)C34C1C(CC23)C1(O)CC(OC)C2CC4C1(O)C2OC` (stereo not shown) [Lappaconitine] here?
Answer: 0.2

Question: What about the “number of jumping mice” value (mice [1]; mouse, in vivo) of the same molecule?
Answer: 1

Question: And the “mice died of accumulated toxicity during the administration” value (mice [2]; initial 3.5 mg/kg, total 45.5 mg/kg in 2 days, of 10 mice)?
Answer: five

Question: What about the “jumping times of each mouse” value (mice [2]; mouse, in vivo) of the same molecule?
Answer: 0

Question: What about the “number of jumping mice” value (mice [2]; mouse, in vivo) of the same molecule?
Answer: 0

Question: What about the “jumping times of each mouse” value (mice [2]; [13]) of the same molecule?
Answer: 0

Question: What about the “number of jumping mice” value (mice [2]; [13]) of the same molecule?
Answer: 0

Question: What about the “behaviour of morphine-withdrawn rats after injection” value (Morphine-dependent rats; rat, in vivo) of the same molecule?
Answer: still looked suppressive

Question: What about the “weight change of morphine-withdrawn rats after injection” value (Morphine-dependent rats; rat, in vivo) of the same molecule?
Answer: no weight increase was observed

Question: And the substitution for morphine (Morphine-dependent rats; rat, in vivo, sc, 8 mg/kg)?
Answer: did not act as a substitution for morphine

Question: What about the “withdrawal symptoms after nalorphine” value (Macaca mulatta; 18 hours after discontinuing on day 29, 53, 59, 67 and 90, nalorphine 4 or 8 mg/kg sc) of the same molecule?
Answer: No withdrawal symptoms were observed

Question: What about the “behavior and appetite after stopping injections” value (Macaca mulatta; 24 hours following stop on day 63 and day 92) of the same molecule?
Answer: no different behavior and appetite from that before stopping injection

Question: And the “dependence after long term use” value (Macaca mulatta; monkeys)?
Answer: does not cause dependence after long term use

Question: And the “toxicity reactions at lethal dosage” value ([3]; lethal dosage)?
Answer: paroxysmal convulsion, respiration suppression until suffocation, and death

Question: And the LD50 ([3]; intravenous injection)?
Answer: 8.4 mg/kg

Question: What about the LD50 ([3]; po, intra gasteria) of the same molecule?
Answer: 32.4 mg/kg

Question: And the LD50 ([3]; sc, subcutaneous injection)?
Answer: 11.7 mg/kg

Question: And the toxicity reactions ([3]; toxicity dosages)?
Answer: paroxysmal restlessness, and foreleg tic

Question: What about the toxicity reactions ([4]; intraperitoneal, toxicity dosage) of the same molecule?
Answer: looked suppressive and immobile lying on stomach in cage, obvious suppression of respiration and showed convulsions before death

Question: What about the LD50 ([4]; rat, in vivo, ip, intraperitoneal injection, read-out: LD50 (95 % confidence limit)) of the same molecule?
Answer: 16.5 mg/kg

Question: What about the “toxic reaction and electrocardiography” value ([5]; 2 mg/kg sc, two monkeys) of the same molecule?
Answer: No toxic reaction and no effect on electrocardiography were observed

Question: And the electrocardiography examination ([5]; 3 mg/kg sc)?
Answer: T wave had elevation, T wave and P wave fused, and R wave became smaller and notching

Question: What about the toxic reactions ([5]; 3 mg/kg sc, 30 minutes after injection) of the same molecule?
Answer: restlessness, slobbering, increased swallowing, drooping eyelids, and rigidity of leg muscles

Question: What about the “convulsion and death of one monkey” value ([5]; 3 mg/kg sc, from 45 minutes) of the same molecule?
Answer: The convulsion still continued until death after 1 hr

Question: What about the “duration of toxic reaction in the other monkey” value ([5]; 3 mg/kg sc, no convulsion) of the same molecule?
Answer: 2 h

Question: And the “electrocardiography examination next day” value ([5]; 3 mg/kg sc, surviving monkey)?
Answer: normal

Question: And the electrocardiography examination [6]?
Answer: No obvious change

Question: What about the “hepatic and renal function and histological and pathological examination of viscera” value [6] of the same molecule?
Answer: No change was observed

Question: And the “weight increase compared to control” value [6]?
Answer: inhibited weight increase at different levels

Question: And the “weight increase compared to control” value [7]?
Answer: a little suppressed

Question: What about the “Histological and pathological examinations” value [8, 14] of the same molecule?
Answer: stimulating reaction, except a little edema and hydrodenaturation in the liver and increasing cerebral colloid cells

Question: What about the electrocardiographic examination [8, 14] of the same molecule?
Answer: No obvious change

Question: And the “toxic reaction during administration” value [8, 14]?
Answer: No toxic reaction

Question: And the MTD ([8]; rhesus monkey, in vivo, monkey, sc twice a day, escalated from 0.1 mg/kg within 50 days, read-out: maximum tolerance dosage / highest tolerated dosage)?
Answer: 2 mg/kg

Question: What about the “recovery of cocaine-treated mice” value ([9]; mouse, in vivo) of the same molecule?
Answer: recovered to normal

Question: And the “effect on withdrawal symptoms of morphine-dependent monkeys” value ([10]; in vivo)?
Answer: could not relieve or weaken the above withdrawal symptoms

Question: And the substitute for morphine ([10]; in vivo, sc, 2 mg/kg)?
Answer: does not act as a substitute for morphine

Question: With `CN1CC[C@]23c4c5ccc(O)c4O[C@H]2[C@@H](O)C=C[C@H]3[C@H]1C5.Cl` [Morphine, morphine hydrochloride, reference compound] as the molecule, how does the “jumping times of each mouse” value (mice [1]; allyl-dromaran 10 mg/kg ip, 20 days: morphine 80 mg/kg (total 1600), lappaconitine 8.0 mg/kg (total 160)) read?
Answer: 34

Question: And the “jumping times of each mouse” value (mice [2]; nalorphine 50 mg/kg, 2 days: morphine initial 2.5 mg/kg (total 157.5), lappaconitine initial 3.5 mg/kg (total 35))?
Answer: 9

Question: What about the “average weight loss per rat” value (Morphine-dependent rats; 24 hours after discontinuing morphine (25 mg/kg sc twice a day, 12 weeks)) of the same molecule?
Answer: 25 g

Question: What about the “behaviour of morphine-withdrawn rats after injection” value (Morphine-dependent rats; morphine hydrochloride 25 mg/kg sc or lappaconitine hydrobromide 8 mg/kg sc) of the same molecule?
Answer: turned to being excited from being suppressive, moved increasingly, frequently took food and water

Question: What about the “weight change of morphine-withdrawn rats after injection” value (Morphine-dependent rats; within 8 hours, morphine hydrochloride 25 mg/kg sc or lappaconitine hydrobromide 8 mg/kg sc) of the same molecule?
Answer: the weight increased to the level shown very quickly before stopping injection of morphine

Question: And the “Withdrawal Syndrome, Nalorphine 0.5 mg/kg sc” value ([10]; Table 5, per monkey (No. 7, 8) and day)?
Answer: +

Question: What about the dependence in monkeys ([10]; sc twice a day until the 30th day) of the same molecule?
Answer: showed dependence on morphine

Question: And the “effect on withdrawal symptoms of morphine-dependent monkeys” value ([10]; sc, lappaconitine 2 mg/kg, 18 hours after stopping morphine)?
Answer: obviously reduced or disappeared

Question: Which results are given for `CCN1CC2(OC(=O)c3ccccc3N)CCC(OC)C34C1C(CC23)C1(O)CC(OC)C2CC4C1(O)C2OC` (stereo not shown) [N-deacetyllappaconitine hydrobromide, N-deacetyl-lappaconitine hydrobromide]?
Answer: Jumping Mice/Survived Mice, Day 1 after stopping drug (Morphine-dependent Mice; 5 mg/g (so in the source) sc): 0/10; Jumping Mice/Survived Mice, Day 4 after stopping administration (Morphine-dependent Mice; 5 mg/g (so in the source) sc): 0/10; Jumping Mice/Survived Mice, Day 5 of treatment (Morphine-dependent Mice; 5 mg/g (so in the source) sc): 0/10

Question: With `COC(=O)[C@H]1[C@@H](OC(=O)c2ccccc2)C[C@@H]2CC[C@H]1N2C` [cocaine, reference compound] as the molecule, how does the “abnormal signs during injection of cocaine” value ([9]; 10 mg/kg sc twice a day, 7 days) read?
Answer: anorexia, pilo-erection, and frequent walking with holding tail, and the like

Question: Which “dependence potential of 100 mg of oral methadone” value [11] does the source give for `CCC(=O)C(CC(C)N(C)C)(c1ccccc1)c1ccccc1` (stereo not shown) [methadone] here?
Answer: equivalent to that of 10 mg of injected morphine

Question: For `C=CCN1CC[C@]23c4c5ccc(O)c4O[C@H]2[C@@H](O)C=C[C@H]3[C@H]1C5` [nalorphine], which “effect of nalorphine on withdrawal symptoms” value ([10]; in vivo, sc) is on record?
Answer: the above symptoms would be more obvious
